Where two headings read alike, the source gives them in different places.
How the values were obtained:
erythrocytic membrane = experiment: Enhancement of resistance of erythrocytic membrane (hypoosmotic hemolysis); format: cell-based, rat (Sprague-Dawley strain); settings: for inhibition at 770 µM / hemolysis at 770 µM: Rattus norvegicus, Erythrocyte, 0.5 h; for inhibition at 770 µM: read-out: Percent Inhibition Ratio (hemolysis); for hemolysis at 770 µM: average of five ± S.E., p < 0.05
Method: Enhancement of resistance of erythrocytic membrane
Sprague-Dawley strain rats were treated with heparine and blood samples were obtained therefrom. The blood was centrifuged at 3000 rpm for ten minutes to remove blood plasma and then washed with 10 mM phosphate buffer-physiological saline solution (pH 7) to wash erythrocyte. To each volume of blood required to obtain the erythrocyte, 19 volumes of hypoosmotic solution (containing 10 mM phosphate buffer) was added and an erythrocyte suspension (5% erythrocyte suspension) was prepared. With reference to hemolysis, the absorbancy (O.D.) at 540 nm using distilled water as the hypoosmotic solution so that completely hemolyzed was defined as "100% hemolysis".
An erythrocyte suspension with 0.4%/0.45% hypoosmotic saline solution was incubated at 37° C. for 30 minutes, centrifuged at 3000 rpm for 10 minutes, and the percent hemolysis was calculated from the O.D. of the supernatant liquid.

intestinal bacteria = experiment: action on intestinal bacteria, standard test by Japan Antibiotic Association
Excerpt: As a mechanism for the resulting colitis by administration of APS, the physico-chemical properties of APS must be involved. […] Therefore, there is no contribution of antibacterial activity in the effect of compound I against colitis. In view of the above, it is clear that the effect of the compound I against colitis is due to the direct protection of large intestinal mucosal cells by compound I.

[1] = Acute toxicity test in rats; settings: rat, in vivo, read-out: LD50 (95% fiducial limits)
Excerpt: (§1) The LD50 values of compound I in ddY strain mice (6 weeks of age) and in Sprague-Dawley strain rats (7 weeks of age) are given in Table 4.

[2] = system: hepatic and renal disorders induced by carbon tetrachloride in rats; experiment: Effect on hepatic and renal disorders induced by administration of carbon tetrachloride; format: in vivo, rat (Sprague-Dawley strain); settings: after CCl4; for Body Weight: average ± S.E., n=10; for Liver Wt.: saline 10.5 ± 1.9; for BUN: saline 56.6 ± 10.6; for GPT: saline 2206 ± 298; for LDH: saline 22425 ± 9211
Method: Effect on hepatic and renal disorders induced by administration of carbon tetrachloride
Five groups of male rats of Sprague-Dawley strain (body weight: 200 grams) were used (ten rats per group). All of these rats were given 4 ml/kg of 50% carbon tetrachloride (used with olive oil) by oral route. After 24 hours, the rats were killed by decapitation, and blood was taken and the liver was isolated therefrom. Previously, the rats were fasted for 18 hours before taking blood therefrom. The blood was subjected to quantitative determination of GOT, GPT, LDH and BUN and the weights of isolated livers were measured.
Compound I was given to the rats of four groups, two to six hours after the administration of carbon tetrachloride (in other words, at the time when hepatic and renal disorders caused by carbon tetrachloride had already appeared) at the dose of 5, 10, 25 or 50 mg/kg by oral route. Physiological saline in an amount of 1 ml/kg/day to the rats of the fifth group. Rats of a sixth group that received no carbon tetrachloride, served as a control, and were also autospied, as above.

solubility in water = format: physicochemical
ddY strain mice = experiment: Acute toxicity test in mice; format: in vivo; settings: mice and rats
Excerpt: as §1

[3] = Acute toxicity test in mice; format: in vivo; settings: mouse, in vivo, read-out: LD50 (95% fiducial limits)
Excerpt: as §1

[4] = system: guinea pigs having colitis caused by amylopectine sulfate; experiment: Effect on colitis induced by administration of amylopectine sulfate (APS); format: in vivo, guinea pig (Hartley strain); settings: 2 weeks; for Symptom: Colitis Incidence: saline group 100%; for Symptom: Area of Ulcer: saline group 120 ± 24
Method: Effect on colitis induced by administration of amylopectine sulfate (according to the method reported in J. Gastroenterology, 67, 473-483, 1974 by Marcus, R and Watt)
Sixty male guinea pigs of Hartley strain (body weight: 200 grams) were used. Among them, fifty guinea pigs were given tap water containing 1% amylopectine sulfate ("APS") as drinking water and were bred for four weeks. (APS contains about 15% sulfur.)
The animals in these five groups were administered 1 ml/kg/day of physiological saline solution and 5, 10, 25 and 50 mg/kg/day of compound I for two weeks by oral route. The other ten guinea pigs were untreated controls and were given untreated tap water as drinking water and were bred for four weeks under the same circumstances as those of the experimental groups.
After two weeks, the animals were killed by overinhalation of ether, the large intestines were removed and the degree of colitis was determined by observing the incidence of ulcers and the area of ulcers with a stereoscopic microscope (×10). The results are given in Table 1, and the changes in body weight during the administration of the compound I is given in the drawing.

For `Nc1nc(N)nc(-c2cc(Cl)ccc2Cl)n1.O=C(O)/C=C\C(=O)O` [Compound I, 2,4-diamino-6-(2', 5'-dichlorophenyl)-s-triazine maleate], the “inhibition of hemolysis (in words)” value (erythrocytic membrane; 0.77 mM, 0.4 and 0.45% saline) was “shows inhibition of hemolysis”, the “protective action to erythrocyte membranes (in words)” value (erythrocytic membrane; 0.77 mM, 0.4 and 0.45% saline) was “exhibits protective action to erythrocyte membranes” and the inhibition at 770 µM (erythrocytic membrane; 0.77 mM, 0.4% saline solution) was 35.5%. For the same compound, the inhibition at 770 µM (erythrocytic membrane; 0.77 mM, 0.45% saline solution) was 62.2%, the hemolysis at 770 µM (erythrocytic membrane; read-out: Percent Hemolysis Ratio, 0.77 mM, 0.4% saline solution, control 70.8 ± 0.6) was 45.7 ± 1.8% and the hemolysis at 770 µM (erythrocytic membrane; read-out: Percent Hemolysis Ratio, 0.77 mM, 0.45% saline solution, control 27.5 ± 2.1) was 10.4 ± 1.1%. The “action on intestinal bacteria” value (intestinal bacteria) was “does not exhibit any action on intestinal bacteria”, the LD50 ([1]; ip, rats female, intraperitoneal) was 789 mg/kg and the LD50 ([1]; ip, rats male, intraperitoneal) was 802 mg/kg. The LD50 ([1]; po, rats female, oral) was 2920 mg/kg, the LD50 ([1]; po, rats male, oral) was 2900 mg/kg and the LD50 ([1]; sc, rats female, subcutaneous) was 1520 mg/kg. For the same compound, the LD50 ([1]; sc, rats male, subcutaneous) was 1600 mg/kg, the “Body Weight” value ([2]; 5 mg/kg oral) was 198.6 ± 0.5 g and the “Liver Wt.” value ([2]; 5 mg/kg oral) was 9.6 ± 2.2 g. It also gave a BUN ([2]; 5 mg/kg oral) of 42.0 ± 9.8 mg/dL, a GPT ([2]; 5 mg/kg oral) of 1920 ± 306 Karmen Unit and an LDH ([2]; 5 mg/kg oral) of 16341 ± 9009 Wroblewski Unit. The GOT ([2]; 5 mg/kg oral, saline printed 3,91 ± 361) was 2215 ± 250 Karmen Unit, the “Body Weight” value ([2]; 10 mg/kg oral) was 199.1 ± 0.7 g and the GOT ([2]; 10 mg/kg oral, p < 0.05 vs saline) was 1822 ± 249 Karmen Unit. The “Liver Wt.” value ([2]; 10 mg/kg oral) was 9.5 ± 2.5 g, the BUN ([2]; 10 mg/kg oral) was 34.6 ± 7.2 mg/dL and the GPT ([2]; 10 mg/kg oral) was 1566 ± 354 Karmen Unit. The LDH ([2]; 10 mg/kg oral) was 12209 ± 6214 Wroblewski Unit, the “Body Weight” value ([2]; 25 mg/kg oral) was 200.6 ± 0.6 g and the “Liver Wt.” value ([2]; 25 mg/kg oral) was 8.3 ± 1.5 g. It also gave a BUN ([2]; 25 mg/kg oral) of 31.4 ± 8.8 mg/dL, a GPT ([2]; 25 mg/kg oral, p < 0.05) of 1012 ± 261 Karmen Unit and an LDH ([2]; 25 mg/kg oral) of 8054 ± 3666 Wroblewski Unit. For the same compound, the “Body Weight” value ([2]; 50 mg/kg oral) was 198.6 ± 0.8 g, the GOT ([2]; 50 mg/kg oral, p < 0.05 vs saline) was 1339 ± 211 Karmen Unit and the “Liver Wt.” value ([2]; 50 mg/kg oral) was 7.4 ± 2.0 g. For the same compound, the BUN ([2]; 50 mg/kg oral, p < 0.05) was 29.7 ± 3.5 mg/dL, the GPT ([2]; 50 mg/kg oral, p < 0.05) was 805 ± 134 Karmen Unit and the LDH ([2]; 50 mg/kg oral, p < 0.05) was 5003 ± 1642 Wroblewski Unit. For the same compound, the “effect on increase of BUN (in words)” value ([2]; oral) was “inhibited the increase of BUN”, the “effect on liver weight, GOT, GPT and LDH (in words)” value ([2]; oral) was “depressed the increase of liver weight and the increase in GOT, GPT, and LDH” and the solubility at 0.5 h (solubility in water; saturated solution in water) was 770 µM. The “solubility in water (in words)” value (solubility in water; water) was “hardly soluble in water”, the “safety (LD50 compared with effective dose, in words)” value (ddY strain mice) was “highly safe” and the LD50 ([3]; ip, mice female, intraperitoneal) was 1010 mg/kg. The LD50 ([3]; ip, mice male, intraperitoneal) was 775 mg/kg, the LD50 ([3]; po, mice female, oral) was 5700 mg/kg and the LD50 ([3]; po, mice male, oral) was 6040 mg/kg. The LD50 ([3]; sc, mice female, subcutaneous) was 3220 mg/kg, the LD50 ([3]; sc, mice male, subcutaneous) was 2840 mg/kg and the “Average Intake of APS, after administration of Compound I” value (from here on “Average Intake of APS”) ([4]; 5 mg/kg/day oral) was 0.91 g/kg/2w. For the same compound, the “Increase in Body Weight (2-4 wks)” value ([4]; 5 mg/kg/day oral, saline group 2 ± 10, control 110 ± 11) was 11 ± 12 g, the “Symptom: Colitis Incidence” value ([4]; 5 mg/kg/day oral) was 90% and the “Symptom: Area of Ulcer” value ([4]; 5 mg/kg/day oral) was 65 ± 20 mm^2. For the same compound, the “Average Intake of APS” value ([4]; 10 mg/kg/day oral) was 1.12 g/kg/2w, the “Increase in Body Weight (2-4 wks)” value ([4]; 10 mg/kg/day oral, saline group 2 ± 10, control 110 ± 11) was 26 ± 15 g and the “Symptom: Colitis Incidence” value ([4]; 10 mg/kg/day oral) was 80%. For the same compound, the “Symptom: Area of Ulcer” value ([4]; 10 mg/kg/day oral) was 50 ± 24 mm^2, the “Average Intake of APS” value ([4]; 25 mg/kg/day oral) was 1.26 g/kg/2w and the “Increase in Body Weight (2-4 wks)” value ([4]; 25 mg/kg/day oral, saline group 2 ± 10, p < 0.05) was 36 ± 13 g. For the same compound, the “Symptom: Colitis Incidence” value ([4]; 25 mg/kg/day oral) was 60%, the “Symptom: Area of Ulcer” value ([4]; 25 mg/kg/day oral, p < 0.05) was 43 ± 15 mm^2 and the “Average Intake of APS” value ([4]; 50 mg/kg/day oral) was 1.24 g/kg/2w. For the same compound, the “Increase in Body Weight (2-4 wks)” value ([4]; 50 mg/kg/day oral, saline group 2 ± 10, p < 0.05) was 54 ± 10 g, the “Symptom: Colitis Incidence” value ([4]; 50 mg/kg/day oral) was 60% and the “Symptom: Area of Ulcer” value ([4]; 50 mg/kg/day oral, p < 0.05) was 34 ± 12 mm^2. For the same compound, the “effect on body weight of afflicted animals (in words, drawing)” value ([4]; oral) was “greatly increases the body weight of the afflicted animals”, the “effect on colitis (in words)” value ([4]; oral) was “improvement in the colitis followed by increase in body weight was observed” and the “intake of APS (in words)” value ([4]; oral) was “the intake of APS did not decrease, but rather increased”.

Reference: US4487770A, “Treatment of diseases of the liver, kidney, colon and rectum” (Nippon Shinyaku Co., Ltd., priority 1981, dated 1984)
